Results published in US20220288022A1, “PHARMACEUTICAL COMPOSITION FOR TOPICAL USE THAT IS IN THE FORM OF A DISPERSED PHASE BASED ON AT LEAST ONE SHORT DIOL IN A CONTINUOUS FATTY PHASE AND COMPRISING AT LEAST ONE ANTI-INFLAMMATORY SUBSTANCE” (SOCIETE D'EXPLOITATION DE PRODUITS POUR LES INDUSTRIES …, priority 2019, published 2022).

Test: Conductivity (σ) of the emulsions, characterization of the direction of the emulsion
Format: physicochemical
Conditions: measured at 25° C., neat diol
Experimental: The conductivity (σ) of the emulsions (F1) to (F3) according to the invention and of the emulsions (F′1) to (F′3) is measured at 25° C., after a period of storage of said emulsions of one day in an insulated climatic chamber regulated at a temperature of 25° C., by means of an LF 196™ brand conductivity meter from the company WTW equipped with a TetraCon™ 96 electrode. If, for a given emulsion, (σ)≤0.5 μS.cm^−1, the emulsion is considered to be non-conductive and consequently the external phase is not the phase based on 1,2-propanediol but the oily phase. Indeed, the conductivity, measured at 25° C., of 1,2-propanediol is equal to 4400 μS.cm^−1. If, for a given emulsion, (σ)>0.5 μS.cm^−1, the emulsion is considered to be conductive and consequently the external phase is not the oily phase but the phase based on 1,2-propanediol or glycerol or PEG-400. This same measurement of the conductivity of the emulsions (F1) to (F3) according to the invention and of the comparative emulsions (F′1) to (F′3) is measured at 25° C. after three months at 25° C., and after three months at 45° C.

SMILES: CC(O)CO (stereo not shown) [1,2-propanediol]
- conductivity of 1,2-propanediol: 4400 μS.cm^−1
